# Data from PubChem BioAssay AID2060904 (Molecular Pharmacology Branch, DTP, NCI, 2025).
# Tested on: 349418-098-R-PDC complex spheroid viability
# Assay: Anticancer human tumor 349418-098-R-PDC patient-derived lung adenocarcinoma cell line growth inhibition [RAS]
# Conditions: for IC50: curve of first compound; for viability, T/C: stronger effect = lower value
# Outline: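 Tumour cells grown as complex spheroids with HUVEC endothelial cells and mesenchymal stem cells, treated with RAS pathway inhibitor combinations. Each agent spans half-log steps from near clinical Cmax, or 10 microM where Cmax is unknown.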
# [1] = second compound 0.0316 µM, first compound 0.000949 µM
# [2] = second compound 0.0316 µM, first compound 0.003 µM
# [3] = second compound 0.0316 µM, first compound 0.00949 µM
# [4] = second compound 0.0316 µM, first compound 0.03 µM
# [5] = second compound 0.0316 µM, first compound 0.0949 µM
# [6] = second compound 0.0316 µM, first compound 0.3 µM
# [7] = second compound 0.1 µM, first compound 0.000949 µM
# [8] = second compound 0.1 µM, first compound 0.003 µM
# [9] = second compound 0.1 µM, first compound 0.00949 µM
# [10] = second compound 0.1 µM, first compound 0.03 µM
# [11] = second compound 0.1 µM, first compound 0.0949 µM
# [12] = second compound 0.1 µM, first compound 0.3 µM
# [13] = second compound 0.316 µM, first compound 0.000949 µM
# [14] = second compound 0.316 µM, first compound 0.003 µM
# [15] = second compound 0.316 µM, first compound 0.00949 µM
# [16] = second compound 0.316 µM, first compound 0.03 µM
# [17] = second compound 0.316 µM, first compound 0.0949 µM
# [18] = second compound 0.316 µM, first compound 0.3 µM
# [19] = second compound 1 µM, first compound 0.000949 µM
# [20] = second compound 1 µM, first compound 0.003 µM
# [21] = second compound 1 µM, first compound 0.00949 µM
# [22] = second compound 1 µM, first compound 0.03 µM
# [23] = second compound 1 µM, first compound 0.0949 µM
# [24] = second compound 1 µM, first compound 0.3 µM
# [25] = second compound 3.16 µM, first compound 0.000949 µM
# [26] = second compound 3.16 µM, first compound 0.003 µM
# [27] = second compound 3.16 µM, first compound 0.00949 µM
# [28] = second compound 3.16 µM, first compound 0.03 µM
# [29] = second compound 3.16 µM, first compound 0.0949 µM
# [30] = second compound 3.16 µM, first compound 0.3 µM
# [31] = second compound 10 µM, first compound 0.000949 µM
# [32] = second compound 10 µM, first compound 0.003 µM
# [33] = second compound 10 µM, first compound 0.00949 µM
# [34] = second compound 10 µM, first compound 0.03 µM
# [35] = second compound 10 µM, first compound 0.0949 µM
# [36] = second compound 10 µM, first compound 0.3 µM
# 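Note: spheroids exposed to compound for seven days before viability readout.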
compound,measurement,setting,value
C=CC(=O)N1CCN(c2nc(OCC3CCCN3C)nc3c(F)c(-c4nc(N)cc(C)c4C(F)(F)F)c(Cl)cc23)C(C)C1 (stereo unspecified) + C#Cc1c(F)ccc2cc(O)cc(-c3ncc4c(N5CC6CCC(C5)N6)nc(OCC56CCCN5CC(F)C6)nc4c3F)c12,IC50,second compound 0.0316 µM,> 1000 nM
same,IC50,second compound 0.1 µM,> 1000 nM
same,IC50,second compound 0.316 µM,> 1000 nM
same,IC50,second compound 1 µM,> 1000 nM
same,IC50,second compound 3.16 µM,> 1000 nM
same,IC50,second compound 10 µM,272 nM
same,"viability, T/C","second compound 0.0316 µM, first compound 0.00316 µM",82.8%
same,"viability, T/C","second compound 0.0316 µM, first compound 0.01 µM",105%
same,"viability, T/C","second compound 0.0316 µM, first compound 0.0316 µM",112%
same,"viability, T/C","second compound 0.0316 µM, first compound 0.1 µM",75.1%
same,"viability, T/C","second compound 0.0316 µM, first compound 0.316 µM",111%
same,"viability, T/C","second compound 0.0316 µM, first compound 1 µM",69.8%
same,"viability, T/C","second compound 0.1 µM, first compound 0.00316 µM",74.3%
same,"viability, T/C","second compound 0.1 µM, first compound 0.01 µM",124%
same,"viability, T/C","second compound 0.1 µM, first compound 0.0316 µM",104%
same,"viability, T/C","second compound 0.1 µM, first compound 0.1 µM",87.2%
same,"viability, T/C","second compound 0.1 µM, first compound 0.316 µM",98.3%
same,"viability, T/C","second compound 0.1 µM, first compound 1 µM",83.9%
same,"viability, T/C","second compound 0.316 µM, first compound 0.00316 µM",65.6%
same,"viability, T/C","second compound 0.316 µM, first compound 0.01 µM",125%
same,"viability, T/C","second compound 0.316 µM, first compound 0.0316 µM",109%
same,"viability, T/C","second compound 0.316 µM, first compound 0.1 µM",79.7%
same,"viability, T/C","second compound 0.316 µM, first compound 0.316 µM",89.3%
same,"viability, T/C","second compound 0.316 µM, first compound 1 µM",87.6%
same,"viability, T/C","second compound 1 µM, first compound 0.00316 µM",81%
same,"viability, T/C","second compound 1 µM, first compound 0.01 µM",114%
same,"viability, T/C","second compound 1 µM, first compound 0.0316 µM",82.9%
same,"viability, T/C","second compound 1 µM, first compound 0.1 µM",91.2%
same,"viability, T/C","second compound 1 µM, first compound 0.316 µM",83.2%
same,"viability, T/C","second compound 1 µM, first compound 1 µM",77.9%
same,"viability, T/C","second compound 3.16 µM, first compound 0.00316 µM",77.4%
same,"viability, T/C","second compound 3.16 µM, first compound 0.01 µM",105%
same,"viability, T/C","second compound 3.16 µM, first compound 0.0316 µM",112%
same,"viability, T/C","second compound 3.16 µM, first compound 0.1 µM",73.3%
same,"viability, T/C","second compound 3.16 µM, first compound 0.316 µM",116%
same,"viability, T/C","second compound 3.16 µM, first compound 1 µM",75.2%
same,"viability, T/C","second compound 10 µM, first compound 0.00316 µM",91%
same,"viability, T/C","second compound 10 µM, first compound 0.01 µM",75%
same,"viability, T/C","second compound 10 µM, first compound 0.0316 µM",85.3%
same,"viability, T/C","second compound 10 µM, first compound 0.1 µM",66.8%
same,"viability, T/C","second compound 10 µM, first compound 0.316 µM",47.7%
same,"viability, T/C","second compound 10 µM, first compound 1 µM",7.82%
CC1(C)CCC(Nc2ncc(C(F)(F)F)c(-c3c[nH]c4c(P(C)(C)=O)c(C#N)ccc34)n2)CN1 (stereo unspecified) + C#Cc1c(F)ccc2cc(O)cc(-c3ncc4c(N5CC6CCC(C5)N6)nc(OCC56CCCN5CC(F)C6)nc4c3F)c12,IC50,second compound 0.0316 µM,1.12 nM
same,IC50,second compound 0.1 µM,< 0.949 nM
same,IC50,second compound 0.316 µM,< 0.949 nM
same,IC50,second compound 1 µM,1.34 nM
same,IC50,second compound 3.16 µM,< 0.949 nM
same,IC50,second compound 10 µM,< 0.949 nM
same,"viability, T/C",[1],54.5%
same,"viability, T/C",[2],25.6%
same,"viability, T/C",[3],14.3%
same,"viability, T/C",[4],11.7%
same,"viability, T/C",[5],11.1%
same,"viability, T/C",[6],7.01%
same,"viability, T/C",[7],34.8%
same,"viability, T/C",[8],24%
same,"viability, T/C",[9],17%
same,"viability, T/C",[10],9.95%
same,"viability, T/C",[11],8.49%
same,"viability, T/C",[12],8.13%
same,"viability, T/C",[13],49.9%
same,"viability, T/C",[14],26.9%
same,"viability, T/C",[15],12.6%
same,"viability, T/C",[16],10.3%
same,"viability, T/C",[17],10.5%
same,"viability, T/C",[18],8.25%
same,"viability, T/C",[19],57.1%
same,"viability, T/C",[20],33.4%
same,"viability, T/C",[21],13%
same,"viability, T/C",[22],10.9%
same,"viability, T/C",[23],11.2%
same,"viability, T/C",[24],8.31%
same,"viability, T/C",[25],43.3%
same,"viability, T/C",[26],24.5%
same,"viability, T/C",[27],12.6%
same,"viability, T/C",[28],10.2%
same,"viability, T/C",[29],9.93%
same,"viability, T/C",[30],8.57%
same,"viability, T/C",[31],48.4%
same,"viability, T/C",[32],23.8%
same,"viability, T/C",[33],16.3%
same,"viability, T/C",[34],10.4%
same,"viability, T/C",[35],9.78%
same,"viability, T/C",[36],7.07%
CCc1c2c(nc3ccc(O)cc13)-c1cc3c(c(=O)n1C2)COC(=O)[C@]3(O)CC + C#Cc1c(F)ccc2cc(O)cc(-c3ncc4c(N5CC6CCC(C5)N6)nc(OCC56CCCN5CC(F)C6)nc4c3F)c12,IC50,second compound 0.0316 µM,1.41 nM
same,IC50,second compound 0.1 µM,1.76 nM
same,IC50,second compound 0.316 µM,1.76 nM
same,IC50,second compound 1 µM,1.96 nM
same,IC50,second compound 3.16 µM,1.75 nM
same,IC50,second compound 10 µM,1.18 nM
same,"viability, T/C",[1],58.9%
same,"viability, T/C",[2],33.1%
same,"viability, T/C",[3],10.8%
same,"viability, T/C",[4],4.93%
same,"viability, T/C",[5],3.89%
same,"viability, T/C",[6],2.53%
same,"viability, T/C",[7],74.7%
same,"viability, T/C",[8],28.7%
same,"viability, T/C",[9],10.6%
same,"viability, T/C",[10],5.19%
same,"viability, T/C",[11],4.46%
same,"viability, T/C",[12],2.82%
same,"viability, T/C",[13],70.9%
same,"viability, T/C",[14],32.1%
same,"viability, T/C",[15],8.77%
same,"viability, T/C",[16],4.98%
same,"viability, T/C",[17],3.85%
same,"viability, T/C",[18],2.45%
same,"viability, T/C",[19],81%
same,"viability, T/C",[20],32%
same,"viability, T/C",[21],9.89%
same,"viability, T/C",[22],6.27%
same,"viability, T/C",[23],4.67%
same,"viability, T/C",[24],2.58%
same,"viability, T/C",[25],65.8%
same,"viability, T/C",[26],36.2%
same,"viability, T/C",[27],10.1%
same,"viability, T/C",[28],5.33%
same,"viability, T/C",[29],3.62%
same,"viability, T/C",[30],2.21%
same,"viability, T/C",[31],57.9%
same,"viability, T/C",[32],17.1%
same,"viability, T/C",[33],4.95%
same,"viability, T/C",[34],2.94%
same,"viability, T/C",[35],1.84%
same,"viability, T/C",[36],0.77%
